# Where a name gives a salt, the structure may show the parent alone. Read-outs that look alike come from different tables or passages of the source. Marks after values point to notes of the source that are not given here.
# Key:
# [1] = tested on: formalin-induced nociceptive response; assay: Formalin-induced nociceptive response in rats; assay type: in vivo, rat; details: for inhibition in vivo at 10 mg/kg: Rattus norvegicus, po, 10 mg/kg orally 30 minutes before formalin
# Description: Specifically, 25 μL of 0.5% formalin solution was subcutaneously injected into the left foot pad of the rat, and then each behavior of the rat consisting of the licking or biting of the pad immediately following the injection was checked with a stopwatch for its duration, and its cumulative duration was recorded at five minute intervals. […] The test compound was orally applied to the rat 30 minutes before the subcutaneous injected of formalin. Then, the inhibitory effect of the test compound on the nociceptive response induced by the formalin injection was calculated according to the following formula. To mention, for illustration, the inhibitory effect of carbamazepine, an agent to serve as a comparative example, if it is orally applied at 50 mg/kg, it inhibits the first-phase response by 52%, while it inhibits the second-phase response by 59%. Percent inhibition (%) -[([…]]×100 wherein […] is the response time (sec) of the test group which received formalin and the test compound, while PRcontol is the response time of the control group which received formalin alone.
# [2] = tested on: Crj:CD(SD) IGS female rats; assay: Toxicological study, 14-day oral gavage; details: 5 or 10 mg/kg/day orally once daily for 14 days
# [3] = biological target: batrachotoxin receptors in the synaptosome from the rat brain (sodium channel); assay: Inhibition of the binding of batrachotoxin to receptors in rat brain synaptosome; details: 1.5 nM tritiated batrachotoxin A20-alfa-benzoate, 100 μM veratridine, 37° C., 30 minutes
# [4] = tested on: response threshold to a mechanical stimulus; assay: Rat model made by loosely constricting the sciatic nerve (Bennett), von Frey threshold; assay type: in vivo; details: constriction, 1 hour after dosing
# Description: (“Pain,” 33:87, 1988). Specifically, the rat was anesthetized with i.p. injection of pentobarbital sodium at 40 mg/kg; the overlying skin was cut open; and the left biceps femoris muscle was bluntly separated. The sciatic nerve was isolated from surrounding tissues; it was gently constricted at four sites about 1 mm apart from each other by the use of surgical gut sutures (4-0); the operated part was closed; and the rat was returned to its cage for further feeding. For the rat belonging to the sham-surgery group, the same operation was performed except that the sciatic nerve was left untouched. Two weeks after the surgery, the response threshold to a mechanical stimulus consisting of touch with a von Frey filament was determined. The test proceeded as follows: the test compound dissolved or suspended in a solvent (0.5% aqueous solution of hydroxypropylmethyl cellulose) was orally applied to the rat having the sciatic nerve constricted; one hour later, von Frey hairs were applied against the foot pad (spots ranging from heel to the mid-point of foot) one after another in an ascending order of their stiffness; if the rat raises its foot when a certain von Frey hair was applied, the stimulus intensity of that hair was taken as the response threshold (maximum stimulus intensity being 28.84g).
# [5] = tested on: isolated myocardial cells; assay: Inhibition of veratrine-induced contracture of isolated myocardial cells; assay type: cell-based; details: Rattus norvegicus; veratrine 100 μg/mL, test compound 30 minutes before
# Description: Specifically, the heart removed from the rat according to the Langendorff's method was treated with an enzyme, and isolated myocardial cells were obtained. The myocardial cells were inoculated on a 48 multi-well plate (3548 Coster) previously coated with poly-L-lysine at a rate of 1×10^4 cells/well. The plate was kept at 37° C. for 1 hour while being exposed to a flow of gas comprising 95% O2 and 5% CO2, to allow the cells to adhere to the bottom of each well. Then, the test compound was added to each well, and allowed to be there for 30 minutes, and […] to each well to 100 μg/mL. Five minutes later, the cells of each well was checked for their morphological changes, and the changes were photographed. If the cells' shape changed from a rod-like one into a ball-like one in the presence of veratrine, the cells were regarded as falling to contracture as a result of the exposure to veratrine. The inhibitory effect of the test compound on the contracture was determined by the probit method, and was expressed in terms of IC50. Veratrine is a mixture of […] alkaloids. If veratrine is applied to isolated myocardial cells, the cells which take a rod-like shape in a normal state will fall to contracture, taking a ball-like shape. Veratrine, when applied to isolated myocardial cells, is thought to cause a persistent sodium current in the cells, by suppressing the inactivation of the sodium channel in the cells, which leads to the contracture of the cells (Donck et al., ibid).
# [6] = tested on: transient sodium current in neuroblastoma cells; assay: Voltage-clamp, transient sodium current; details: at 53 μM
# Description: This experiment was undertaken by the method disclosed by Verdonck et al., Eur. J. Pharmacol., 203:371, 1991. Neuroblastoma cells were used. Isolated cells were strewn over a recording chamber filled with perfusion fluid; the membrane currents are recorded in a whole cell configuration by the voltage-clamp method based on the use of a glass microcapillary. Current components due to ions other than sodium ion were eliminated as follows. The potassium current was removed by cesium ion introduced in the capillary, and the calcium current was removed by cobalt ion added to the perfusion fluid. Measurement of the transient sodium current of the cells was achieved by applying depolarizing pulses at appropriate intervals to the cells clamped at holding potential, and by observing a transient inward current elicited therewith.
# [7] = 10 min, first 10 minutes, read-out: Response inhibition, 1st phase
# [8] = 0.75 h, 10 to 45 minutes, read-out: Response inhibition, 2nd phase
Structure (SMILES),"inhibition in vivo at 10 mg/kg [1, 7] [%]","inhibition in vivo at 10 mg/kg [1, 8] [%]",IC50 [3] [µM],melting point,also measured
"CC(C)Oc1ccc(N(C)CCC2(O)CCN(CCc3cccc(F)c3)CC2)cc1 [Example 58, 1-[2-(3-fluorophenyl)ethyl]-4-[2-[N-methyl-N-(4-isopropoxyphenyl)amino]ethyl]piperidin-4-ol dihydrochloride]",29,56,–,–,–
"CC(C)Oc1ccc(N(C)CCC2(O)CCN(CCc3ccc(C#N)cc3)CC2)cc1.Cl.Cl [Example 51, 1-[2-(4-cyanophenyl)ethyl]-4-[2-[N-methyl-N-(4-isopropoxyphenyl)amino]ethyl]piperidin-4-ol dihydrochloride]",46,67,0.61,–,"Body weight [2]: no loss in the weight; General conditions [2]: no notable abnormalities in general conditions; Histopathological examination [2]: no abnormal findings were obtained; Survival during treatment period [2]: All the rats survived; Mean threshold, normal foot (right) ([4]; 2.5 mg/kg oral): 16.43 g; Mean threshold, test foot (left) ([4]; 2.5 mg/kg oral): 8.33 g; Mean threshold, normal foot (right) ([4]; 5 mg/kg oral): 16.43 g; Mean threshold, test foot (left) ([4]; 5 mg/kg oral): 12.63* g; Mean threshold, normal foot (right) ([4]; 10 mg/kg oral): 16.85 g; Mean threshold, test foot (left) ([4]; 10 mg/kg oral): 15.58** g; IC50 [5]: 1.56 µM; Decrease of the peak value of the transient inward current [6]: 18%"
"NC(=O)N1c2ccccc2C=Cc2ccccc21 [carbamazepine, reference compound]",–,–,≥ 300,–,"Inhibition of the first-phase response ([1]; orally applied at 50 mg/kg): 52%; Inhibition of the second-phase response ([1]; orally applied at 50 mg/kg): 59%; Mean threshold, normal foot (right) ([4]; 50 mg/kg oral): 19.85 g; Mean threshold, test foot (left) ([4]; 50 mg/kg oral): 8.97 g; Mean threshold, normal foot (right) ([4]; 100 mg/kg oral): 27.13 g; Mean threshold, test foot (left) ([4]; 100 mg/kg oral): 19.43** g"
"CC(C)Oc1ccc(N(C)CCC2(O)CCN(CCc3ccc(F)cc3)CC2)cc1.Cl.Cl [Example 55, 1-[2-(4-fluorophenyl)ethyl]-4-[2-[N-methyl-N-(4-isopropoxyphenyl)amino]ethyl]piperidin-4-ol dihydrochloride]",30,55,0.28,252 °C (dec.),IC50 [5]: 1.34 µM
"CC(C)Oc1ccc(N(C)CCC2(O)CCN(CCc3ccoc3)CC2)cc1.Cl.Cl [Example 84, 1-[2-(3-furyl)ethyl]-4-[2-[N-methyl-N-(4-isopropoxyphenyl)amino]ethyl]piperidin-4-ol dihydrochloride]",23,49,–,202.6 to 203.9 °C,–
CC(C)Oc1ccc(NCCC2(O)CCN(CCc3ccc(C#N)cc3)CC2)cc1.Cl.Cl,–,–,–,197.3 °C (dec.),–
"CC(C)Oc1ccc(N(C)CCC2(O)CCN(CCc3ccccc3)CC2)cc1.Cl.Cl [Example 50, 4-[2-[N-methyl-N-(4-isopropoxyphenyl)-amino]ethyl]-1-(2-phenylethyl)piperidin-4-ol dihydrochloride]",44,64,0.3,189.7 to 192.6 °C,IC50 [5]: 1.51 µM
"CC(C)Oc1ccc(N(C)CCC2(O)CCN(CCc3ccc(Cl)cc3)CC2)cc1 [Example 60, 1-[2-(4-chlorophenyl)ethyl]-4-[2-[N-methyl-N-(4-isopropoxyphenyl)amino]ethyl]piperidin-4-ol dihydrochloride]",61,92,–,–,–
"CCOc1ccc(N(C)CCC2(O)CCN(CCc3ccc(C#N)cc3)CC2)cc1.Cl.Cl [Example 90, 1-[2-(4-cyanophenyl)ethyl]-4-[2-[N-(4-ethoxyphenyl)-N-methylamino]ethyl]piperidin-4-ol dihydrochloride]",55,65,–,214 to 215.2 °C,–
"CC(C)Oc1ccc(N(C)CCC2(O)CCN(CCc3ccc([N+](=O)[O-])cc3)CC2)cc1 [Example 56, 4-[2-[N-methyl-N-(4-isopropoxyphenyl)amino]ethyl]-1-[2-(4-nitrophenyl)ethyl]piperidin-4-ol dihydrochloride]",40,70,–,–,–
"CC(C)Oc1ccc(N(C)CCC2(O)CCN(CCc3cccs3)CC2)cc1.Cl.Cl [Example 86, 4-[2-[N-methyl-N-(4-isopropoxyphenyl)amino]ethyl]-1-[2-(2-thienyl)ethyl]piperidin-4-ol dihydrochloride]",19,62,–,203 to 204.5 °C,IC50 [5]: 1.65 µM
"O=C1NC(=O)C(c2ccccc2)(c2ccccc2)N1 [phenytoin, reference compound]",–,–,51,–,–
"Cc1cccc(C)c1OCC(C)N (centres unmarked) [mexiletine, reference compound]",–,–,17,–,–
"CC(C)Oc1ccc(N(C)CCC2(O)CCN(CCc3ccccc3C(F)(F)F)CC2)cc1 [Example 65, 4-[2-[N-methyl-N-(4-isopropoxyphenyl)amino]ethyl]-1-[2-[2-(trifluoromethyl)phenyl]ethyl]piperidin-4-ol dihydrochloride]",93,96,–,–,–
"CC(C)Oc1ccc(N(C)CC2(O)CCN(CCc3ccc(C#N)cc3)CC2)cc1.Cl.Cl [Example 96, 1-[2-(4-cyanophenyl)ethyl]-4-[N-methyl-N-(4-isopropoxyphenyl)aminomethyl]piperidin-4-ol dihydrochloride]",74,69,–,202.8 to 203.4 °C,–

# Source: patent publication US6642257B2, “Agents for treating neuropathic pain” (Mochida Pharmaceutical Co., Ltd., priority 1999, dated 2003)
